Measured values taken from ChEMBL document CHEMBL1909046, “DrugMatrix in vitro pharmacology data”.
pIC50: −log10 of the molar value.

What was measured:
[1] = target: T1, 3-hydroxy-3-methylglutaryl-coenzyme A reductase (Homo sapiens, UniProt P04035); parameters: species or system Escherichia coli;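 further: enzyme inhibition assay of HMG-CoA reductase using radiolabeled [14C]HMG-CoA as substrate; in other assays of this panel Not Active means under 50% inhibition at 10 µM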
T1 sequence (P04035 whole entry): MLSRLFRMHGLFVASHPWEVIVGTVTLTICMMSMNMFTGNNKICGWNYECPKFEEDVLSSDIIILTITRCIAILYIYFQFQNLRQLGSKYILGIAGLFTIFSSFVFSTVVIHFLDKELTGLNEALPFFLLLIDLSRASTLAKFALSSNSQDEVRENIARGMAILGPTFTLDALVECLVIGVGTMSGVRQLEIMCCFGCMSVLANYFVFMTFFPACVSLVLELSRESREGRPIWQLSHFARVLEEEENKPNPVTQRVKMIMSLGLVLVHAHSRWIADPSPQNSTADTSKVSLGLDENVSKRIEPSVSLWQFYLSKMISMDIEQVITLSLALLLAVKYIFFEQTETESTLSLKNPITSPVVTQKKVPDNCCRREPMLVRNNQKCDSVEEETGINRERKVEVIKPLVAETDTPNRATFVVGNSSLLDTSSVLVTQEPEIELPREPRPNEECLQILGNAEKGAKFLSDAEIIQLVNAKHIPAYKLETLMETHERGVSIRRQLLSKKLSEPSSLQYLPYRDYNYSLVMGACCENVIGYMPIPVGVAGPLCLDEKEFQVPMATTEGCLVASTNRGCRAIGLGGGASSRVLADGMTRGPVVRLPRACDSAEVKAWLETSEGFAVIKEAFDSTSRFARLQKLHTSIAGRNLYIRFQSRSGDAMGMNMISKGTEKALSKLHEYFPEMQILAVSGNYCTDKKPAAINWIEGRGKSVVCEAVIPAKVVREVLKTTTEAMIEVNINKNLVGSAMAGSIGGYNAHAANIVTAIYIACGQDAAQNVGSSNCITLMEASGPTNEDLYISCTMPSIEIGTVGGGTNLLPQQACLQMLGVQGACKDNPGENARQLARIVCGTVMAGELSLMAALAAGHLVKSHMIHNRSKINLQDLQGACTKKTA

[2] = target: T2, Muscarinic acetylcholine receptor M5 (Homo sapiens, UniProt P08912); assay type: cell membranes, Membrane; settings: cho-k1; further: in other assays of this panel Not Active means under 50% inhibition at 10 µM
T2 sequence (P08912 whole entry): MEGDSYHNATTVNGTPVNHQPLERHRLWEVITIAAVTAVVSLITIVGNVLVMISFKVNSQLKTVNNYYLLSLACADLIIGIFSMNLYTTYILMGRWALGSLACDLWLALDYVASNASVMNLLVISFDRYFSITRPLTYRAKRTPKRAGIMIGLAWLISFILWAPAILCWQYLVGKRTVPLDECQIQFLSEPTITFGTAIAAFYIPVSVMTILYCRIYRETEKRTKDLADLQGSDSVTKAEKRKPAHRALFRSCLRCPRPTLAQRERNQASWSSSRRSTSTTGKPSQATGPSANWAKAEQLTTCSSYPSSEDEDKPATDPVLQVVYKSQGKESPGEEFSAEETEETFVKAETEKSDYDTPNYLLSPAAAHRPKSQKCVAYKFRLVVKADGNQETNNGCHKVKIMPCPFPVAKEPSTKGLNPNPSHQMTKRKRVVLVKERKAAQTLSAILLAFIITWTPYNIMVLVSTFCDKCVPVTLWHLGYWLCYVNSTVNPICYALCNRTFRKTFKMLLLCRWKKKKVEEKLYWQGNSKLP

Adenosine receptor A1 = target: T3, Adenosine receptor A1 (Homo sapiens, UniProt P30542); assay type: cell membranes, CHO, Membrane; settings: cho;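 further: radioligand binding assay at the adenosine A1 receptor, with DPCPX serving as the labelled ligand; in other assays of this panel Not Active means under 50% inhibition at 10 µM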
T3 sequence (P30542 whole entry): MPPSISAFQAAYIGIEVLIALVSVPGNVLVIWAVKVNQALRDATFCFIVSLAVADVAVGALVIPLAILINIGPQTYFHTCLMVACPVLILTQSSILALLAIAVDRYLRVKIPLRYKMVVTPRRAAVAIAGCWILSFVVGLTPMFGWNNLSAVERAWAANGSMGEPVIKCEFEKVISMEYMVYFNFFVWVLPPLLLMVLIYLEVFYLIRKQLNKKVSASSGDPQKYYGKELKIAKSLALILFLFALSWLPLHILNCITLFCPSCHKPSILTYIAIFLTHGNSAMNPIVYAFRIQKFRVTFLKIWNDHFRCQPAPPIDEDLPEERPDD

[3] = target: T4, Type-2 angiotensin II receptor (Homo sapiens, UniProt P50052); assay type: cell-based; settings: cho-k1; further: in other assays of this panel Not Active means under 50% inhibition at 10 µM
T4 sequence (P50052 whole entry): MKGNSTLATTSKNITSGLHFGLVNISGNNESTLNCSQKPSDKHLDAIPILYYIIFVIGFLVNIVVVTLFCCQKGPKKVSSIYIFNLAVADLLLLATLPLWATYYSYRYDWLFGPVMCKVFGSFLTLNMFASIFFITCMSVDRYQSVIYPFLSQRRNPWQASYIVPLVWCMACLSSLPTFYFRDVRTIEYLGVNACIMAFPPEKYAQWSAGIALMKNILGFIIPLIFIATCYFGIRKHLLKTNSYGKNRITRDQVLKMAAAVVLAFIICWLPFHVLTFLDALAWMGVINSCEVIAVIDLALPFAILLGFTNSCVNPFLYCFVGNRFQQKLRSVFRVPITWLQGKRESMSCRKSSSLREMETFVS

[4] = DRUGMATRIX: GABAA, Muscimol, Central radioligand binding (ligand: [3H] Muscimol); assay type: cell membranes, Rattus norvegicus, Wistar, Brain, Membrane; settings: Not Active = under 50% inhibition at 10 µM
[5] = target: Tyrosine-protein kinase Fyn (Homo sapiens, UniProt P06241); assay: biochemical; assay type: cell-based, Insect cells; settings: for IC50: insect cells
Tyrosine-protein kinase Fyn, sequence (P06241 whole entry): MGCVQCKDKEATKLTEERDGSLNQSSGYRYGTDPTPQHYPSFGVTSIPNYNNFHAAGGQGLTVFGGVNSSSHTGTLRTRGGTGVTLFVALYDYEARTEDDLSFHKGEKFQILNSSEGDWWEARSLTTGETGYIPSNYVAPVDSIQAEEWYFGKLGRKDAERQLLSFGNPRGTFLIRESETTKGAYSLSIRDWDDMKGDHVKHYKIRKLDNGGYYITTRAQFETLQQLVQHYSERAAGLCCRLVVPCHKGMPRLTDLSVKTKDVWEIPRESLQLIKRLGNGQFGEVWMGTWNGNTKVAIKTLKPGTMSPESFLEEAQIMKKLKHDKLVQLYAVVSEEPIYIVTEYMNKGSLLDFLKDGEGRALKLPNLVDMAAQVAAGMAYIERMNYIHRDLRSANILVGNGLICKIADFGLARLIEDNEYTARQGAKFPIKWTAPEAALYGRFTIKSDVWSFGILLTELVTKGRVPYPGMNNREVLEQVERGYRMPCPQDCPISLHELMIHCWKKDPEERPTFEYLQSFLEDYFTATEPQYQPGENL

[6] = target: T5, Muscarinic acetylcholine receptor M4 (Homo sapiens, UniProt P08173); assay type: cell membranes, CHO-K1, Membrane; settings: cho-k1; further: in other assays of this panel Not Active means under 50% inhibition at 10 µM
T5 sequence (P08173 whole entry): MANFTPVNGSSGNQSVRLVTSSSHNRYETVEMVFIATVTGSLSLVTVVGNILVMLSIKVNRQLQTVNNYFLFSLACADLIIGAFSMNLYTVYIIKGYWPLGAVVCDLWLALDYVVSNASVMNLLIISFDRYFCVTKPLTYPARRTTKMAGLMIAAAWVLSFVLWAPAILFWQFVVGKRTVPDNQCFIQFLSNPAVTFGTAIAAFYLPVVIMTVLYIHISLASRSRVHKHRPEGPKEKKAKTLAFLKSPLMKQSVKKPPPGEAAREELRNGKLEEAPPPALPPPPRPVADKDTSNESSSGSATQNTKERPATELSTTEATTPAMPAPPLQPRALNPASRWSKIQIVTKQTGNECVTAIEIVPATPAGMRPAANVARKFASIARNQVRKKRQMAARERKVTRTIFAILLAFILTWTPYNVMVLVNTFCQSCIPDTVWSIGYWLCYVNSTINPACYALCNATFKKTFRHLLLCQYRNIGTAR

Row | SMILES | IC50 [1] | IC50 [2] | IC50 (Adenosine receptor A1) | IC50 [3] | IC50 [4] | Ki [4] | IC50 [5] | IC50 [6] | Ki [3] | pIC50 ([5]; read-out: IC50)
1 | CN[C@@H]1[C@H](O)[C@H](NC)[C@H]2O[C@@]3(O)C(=O)C[C@@H](C)O[C@H]3O[C@@H]2[C@H]1O [SPECTINOMYCIN] | Not Active | Not Active | Not Active | Not Active | Not Active | Not Active | Not Active | Not Active |  | 
2 | Nc1ccc(S(=O)(=O)Nc2ncccn2)cc1 [SULFADIAZINE] | Not Active | Not Active | Not Active | Not Active | Not Active | Not Active | Not Active | Not Active |  | 
3 | COc1ncnc(NS(=O)(=O)c2ccc(N)cc2)c1OC [SULFADOXINE] | Not Active | Not Active | Not Active | Not Active | Not Active | Not Active | Not Active | Not Active |  | 
4 | Nc1ccc(S(=O)(=O)Nc2nccs2)cc1 [SULFATHIAZOLE] | Not Active | Not Active | Not Active | Not Active | Not Active | Not Active | Not Active | Not Active |  | 
5 | C[C@]12CC[C@H]3[C@@H](CCC4=CC(=O)CC[C@@]43C)[C@@H]1CC[C@@H]2O [TESTOSTERONE] | Not Active | Not Active | Not Active | Not Active | Not Active | Not Active | Not Active | Not Active |  | 
6 | CC(C)(C)NC[C@H](O)COc1nsnc1N1CCOCC1 [TIMOLOL] | Not Active | Not Active | Not Active | Not Active | Not Active | Not Active | Not Active | Not Active |  | 
7 | CCS(=O)(=O)CCn1c([N+](=O)[O-])cnc1C [TINIDAZOLE] | Not Active | Not Active | Not Active | Not Active | Not Active | Not Active | Not Active | Not Active |  | 
8 | C[C@@H]1C[C@H]2[C@@H]3CCC4=CC(=O)C=C[C@]4(C)C3=CC[C@]2(C)[C@H]1C(=O)CN1CCN(c2cc(N3CCCC3)nc(N3CCCC3)n2)CC1 [TIRILAZAD] | Not Active | Not Active | Not Active |  | Not Active | Not Active |  | Not Active | Not Active | 5.95
9 | NC[C@H]1O[C@H](O[C@H]2[C@H](O)[C@@H](O[C@H]3O[C@H](CO)[C@@H](O)[C@H](N)[C@H]3O)[C@H](N)C[C@@H]2N)[C@H](N)C[C@@H]1O [TOBRAMYCIN] | Not Active | Not Active | Not Active | Not Active | Not Active | Not Active | Not Active | Not Active |  | 
10 | O=C(O)C(Cl)(Cl)Cl [TRICHLOROACETIC ACID] | Not Active | Not Active | Not Active | Not Active | Not Active | Not Active | Not Active | Not Active |  | 
11 | COc1ccc(CN2CCNCC2)c(OC)c1OC [TRIMETAZIDINE] | Not Active | Not Active | Not Active | Not Active | Not Active | Not Active | Not Active | Not Active |  | 
12 | CC(=O)O[C@H]1C[C@@H]2CC[C@@H]3[C@H](CC[C@@]4(C)[C@H]3C[C@H]([N+]3(C)CCCCC3)[C@@H]4OC(C)=O)[C@@]2(C)C[C@@H]1N1CCCCC1.[Br-] [VECURONIUM BROMIDE] | Not Active | Not Active | Not Active | Not Active | Not Active | Not Active | Not Active | Not Active |  | 
13 | COc1cc(C(=O)NS(=O)(=O)c2ccccc2C)ccc1Cc1cn(C)c2ccc(NC(=O)OC3CCCC3)cc12 [ZAFIRLUKAST] | Not Active | Not Active | Not Active | Not Active | Not Active | Not Active | Not Active | Not Active |  | 
